Assay results reported in patent publication US20100298141A1, “SUBSTITUTED PYRIDINE N-OXIDE HERBICIDES” (E. I. DU PONT DE NEMOURS AND COMPANY, priority 2007, published 2010).

How the values were obtained:
[1] = system: barnyardgrass; experiment: Test C flooded paddy test; assay type: in vivo, Echinochloa crus-galli; settings: Flood
Procedure, shortened: (§1)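 Greenhouse pots flooded to 3 cm above soil at time of treatment received compound via the water, which stayed at that level.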

[2] = system: giant foxtail; experiment: Test A pre-/postemergence greenhouse test; assay type: in vivo, Setaria faberi; settings: for Plant response rating, Foxtail, Giant: 0 to 100 scale where 0 is no effect and 100 is complete control; for Foxtail, Giant plant response rating: 0 to 100 scale
Procedure, shortened: (§2)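 Visual injury ratings, made relative to untreated controls roughly ten days after treatment, cover both preemergence and postemergence application. Compounds in a surfactant-containing non-phytotoxic solvent were sprayed onto the soil surface after sowing and, simultaneously, onto young plants at the one- to two-leaf stage.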

[3] = system: wheat; experiment: Test C pre-/postemergence test; assay type: in vivo, Triticum aestivum
Procedure, shortened: (§3)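 Test chemicals were formulated with surfactant in a non-phytotoxic solvent and sprayed both on freshly planted seeds (preemergence) and on 1- to 4-leaf plants of 2–18 cm (postemergence). Flooded-paddy pots received compound directly into 3 cm of standing water, maintained for the test.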

[4] = system: morningglory; experiment: Test C pre-/postemergence test; assay type: in vivo, Ipomoea coccinea
Procedure, shortened: as §3

[5] = system: yellow nutsedge; experiment: Test C pre-/postemergence test; assay type: in vivo, Cyperus esculentus
Procedure, shortened: as §3

[6] = system: bermudagrass; experiment: Test C pre-/postemergence test; assay type: in vivo, Cynodon dactylon
Procedure, shortened: as §3

[7] = system: crabgrass; experiment: Test A pre-/postemergence greenhouse test; assay type: in vivo, Digitaria sanguinalis; settings: for Plant response rating, Crabgrass, Large: 0 to 100 scale where 0 is no effect and 100 is complete control; for Crabgrass, Large plant response rating: 0 to 100 scale
Procedure, shortened: as §2

[8] = system: morningglory; experiment: Test A pre-/postemergence greenhouse test; assay type: in vivo, Ipomoea spp.; settings: for Plant response rating, Morningglory: 0 to 100 scale where 0 is no effect and 100 is complete control; for Morningglory plant response rating: 0 to 100 scale
Procedure, shortened: as §2

[9] = system: Goosegrass; experiment: Test C pre-/postemergence test; assay type: in vivo, Eleusin indica
Procedure, shortened: as §3

[10] = system: pigweed; experiment: Test C pre-/postemergence test; assay type: in vivo, Amaranthus retroflexus; settings: for Pigweed plant response rating: preemergence, scale 0 (no effect) to 100 (complete control); for Plant response rating (0 to 100), Pigweed / Plant response rating, Pigweed: Postemergence; for Plant response rating, Pigweed: scale 0 to 100, 0 no effect, 100 complete control
Procedure, shortened: as §3

[11] = system: Italian ryegrass; experiment: Test C pre-/postemergence test; assay type: in vivo, Lolium multiflorum
Procedure, shortened: as §3

[12] = system: soybean; experiment: Test C pre-/postemergence test; assay type: in vivo, Glycine max
Procedure, shortened: as §3

[13] = system: corn; experiment: Test A pre-/postemergence greenhouse test; assay type: in vivo, Zea mays; settings: for Plant response rating, Corn: 0 to 100 scale where 0 is no effect and 100 is complete control; for Corn plant response rating: 0 to 100 scale
Procedure, shortened: as §2

[14] = system: umbrella sedge; experiment: Test C flooded paddy test; assay type: in vivo, Cyperus difformis; settings: Flood
Procedure, shortened: as §1

[15] = system: wheat; experiment: Test A pre-/postemergence greenhouse test; assay type: in vivo, Triticum aestivum; settings: for Plant response rating, Wheat: 0 to 100 scale where 0 is no effect and 100 is complete control; for Wheat plant response rating: 0 to 100 scale
Procedure, shortened: as §2

[16] = system: common (oilseed) sunflower; experiment: Test C pre-/postemergence test; assay type: in vivo, Helianthus annuus
Procedure, shortened: as §3

[17] = 62 g ai/ha, scale 0 to 100 (0 no effect, 100 complete control)
[18] = 250 g ai/ha, scale 0 to 100, 0 no effect, 100 complete control, 13 to 15 days
[19] = Postemergence, 500 g ai/ha, 0 is no effect, 100 is complete control
[20] = Preemergence, 125 g ai/ha, 0 no effect, 100 complete control
[21] = 62 g ai/ha, Preemergence, scale 0 to 100
[22] = 125 g ai/ha, preemergence, scale 0 (no effect) to 100 (complete control)
[23] = Postemergence, 125 g ai/ha, scale 0 to 100, 0 no effect, 100 complete control
[24] = Postemergence, 250 g ai/ha, scale 0 to 100, 0 no effect, 100 complete control
[25] = Preemergence, 31 g ai/ha, scale 0 to 100 (0 no effect, 100 complete control)
[26] = preemergence, 250 g ai/ha, scale 0 (no effect) to 100 (complete control)

`Cn1nc(C(F)(F)C(F)(F)F)c(C[S+]([O-])c2cccc[n+]2[O-])c1OCC(F)(F)F` (stereo not shown) [Compound 79] was tested, and the “Plant response rating, Barnyardgrass” value [1, 17] was 0, the “Plant response rating, Barnyardgrass” value [1, 18] was 70 and the “Plant response rating, Foxtail, Giant” value ([2]; Postemergence, 125 g ai/ha) was 80. For the same molecule, the “Foxtail, Giant plant response rating” value [2, 19] was 90, the “Foxtail, Giant plant response rating” value [2, 20] was 90 and the “Plant response rating, Foxtail, Giant” value ([2]; Preemergence, 500 g ai/ha) was 100. The “Wheat plant response rating” value [3, 21] was 10, the “Wheat plant response rating” value [3, 22] was 60 and the “Plant response rating (0 to 100), Wheat” value ([3]; Postemergence, 31 g ai/ha) was 0. The “Plant response rating (0 to 100), Wheat” value ([3]; Postemergence, 62 g ai/ha) was 30, the “Plant response rating, Wheat” value [3, 23] was 60 and the “Plant response rating, Wheat” value [3, 24] was 80. The “Plant response rating, Wheat” value [3, 25] was 10, the “Wheat plant response rating” value [3, 26] was 80 and the “Morningglory plant response rating” value [4, 21] was 100. The “Morningglory plant response rating” value [4, 22] was 100, the “Plant response rating (0 to 100), Morningglory” value ([4]; Postemergence, 31 g ai/ha) was 0 and the “Plant response rating (0 to 100), Morningglory” value ([4]; Postemergence, 62 g ai/ha) was 0. The “Plant response rating, Morningglory” value [4, 23] was 0, the “Plant response rating, Morningglory” value [4, 24] was 0 and the “Plant response rating, Morningglory” value [4, 25] was 60. For the same molecule, the “Morningglory plant response rating” value [4, 26] was 100, the “Nutsedge, Yellow plant response rating” value [5, 21] was 75 and the “Nutsedge, Yellow plant response rating” value [5, 22] was 90. For the same molecule, the “Plant response rating (0 to 100), Nutsedge, Yellow” value ([5]; Postemergence, 31 g ai/ha) was 0, the “Plant response rating (0 to 100), Nutsedge, Yellow” value ([5]; Postemergence, 62 g ai/ha) was 0 and the “Plant response rating, Nutsedge, Yellow” value [5, 23] was 0. The “Plant response rating, Nutsedge, Yellow” value [5, 24] was 10, the “Plant response rating, Nutsedge, Yellow” value [5, 25] was 0 and the “Nutsedge, Yellow plant response rating” value [5, 26] was 100. The “Bermudagrass plant response rating” value ([6]; 62 g ai/ha, Preemergence, scale 0 to 100 (0 no effect, 100 complete control)) was 100, the “Bermudagrass plant response rating” value [6, 22] was 100 and the “Plant response rating (0 to 100), Bermudagrass” value ([6]; Postemergence, 31 g ai/ha) was 0. The “Plant response rating (0 to 100), Bermudagrass” value ([6]; Postemergence, 62 g ai/ha) was 0, the “Plant response rating, Bermudagrass” value [6, 23] was 45 and the “Plant response rating, Bermudagrass” value [6, 24] was 50. For the same molecule, the “Plant response rating, Bermudagrass” value [6, 25] was 95, the “Bermudagrass plant response rating” value [6, 26] was 100 and the “Plant response rating, Crabgrass, Large” value ([7]; Postemergence, 125 g ai/ha) was 70. The “Crabgrass, Large plant response rating” value [7, 19] was 90, the “Crabgrass, Large plant response rating” value [7, 20] was 70 and the “Plant response rating, Crabgrass, Large” value ([7]; Preemergence, 500 g ai/ha) was 100. The “Plant response rating, Morningglory” value ([8]; Postemergence, 125 g ai/ha) was 50, the “Morningglory plant response rating” value [8, 19] was 100 and the “Morningglory plant response rating” value [8, 20] was 60. For the same molecule, the “Plant response rating, Morningglory” value ([8]; Preemergence, 500 g ai/ha) was 90, the “Goosegrass plant response rating” value [9, 21] was 75 and the “Goosegrass plant response rating” value [9, 22] was 100. The “Plant response rating (0 to 100), Goosegrass” value ([9]; Postemergence, 31 g ai/ha) was 0, the “Plant response rating (0 to 100), Goosegrass” value ([9]; Postemergence, 62 g ai/ha) was 0 and the “Plant response rating, Goosegrass” value [9, 23] was 40. The “Plant response rating, Goosegrass” value [9, 24] was 50, the “Plant response rating, Goosegrass” value [9, 25] was 70 and the “Goosegrass plant response rating” value [9, 26] was 100. The “Pigweed plant response rating” value ([10]; 125 g ai/ha) was 70, the “Plant response rating (0 to 100), Pigweed” value ([10]; 31 g ai/ha) was 0 and the “Plant response rating (0 to 100), Pigweed” value ([10]; 62 g ai/ha) was 0. The “Plant response rating, Pigweed” value ([10]; 125 g ai/ha) was 20, the “Plant response rating, Pigweed” value ([10]; 250 g ai/ha) was 60 and the “Pigweed plant response rating” value ([10]; 250 g ai/ha) was 100. For the same molecule, the “Ryegrass, Italian plant response rating” value [11, 21] was 60, the “Ryegrass, Italian plant response rating” value [11, 22] was 100 and the “Plant response rating (0 to 100), Ryegrass, Italian” value ([11]; Postemergence, 31 g ai/ha) was 0. The “Plant response rating (0 to 100), Ryegrass, Italian” value ([11]; Postemergence, 62 g ai/ha) was 40, the “Plant response rating, Ryegrass, Italian” value [11, 23] was 60 and the “Plant response rating, Ryegrass, Italian” value [11, 24] was 100. The “Plant response rating, Ryegrass, Italian” value [11, 25] was 40, the “Ryegrass, Italian plant response rating” value [11, 26] was 100 and the “Soybean plant response rating” value [12, 21] was 60. For the same molecule, the “Plant response rating (0 to 100), Soybean” value ([12]; Postemergence, 31 g ai/ha) was 50, the “Plant response rating (0 to 100), Soybean” value ([12]; Postemergence, 62 g ai/ha) was 55 and the “Plant response rating, Soybean” value [12, 23] was 60. For the same molecule, the “Plant response rating, Soybean” value [12, 25] was 60, the “Soybean plant response rating” value [12, 26] was 80 and the “Plant response rating, Corn” value ([13]; Postemergence, 125 g ai/ha) was 20. For the same molecule, the “Corn plant response rating” value [13, 19] was 80, the “Corn plant response rating” value [13, 20] was 0 and the “Plant response rating, Corn” value ([13]; Preemergence, 500 g ai/ha) was 80. For the same molecule, the “Plant response rating, Sedge, Umbrella” value [14, 17] was 90, the “Plant response rating, Sedge, Umbrella” value [14, 18] was 100 and the “Plant response rating, Wheat” value ([15]; Postemergence, 125 g ai/ha) was 50. The “Wheat plant response rating” value [15, 19] was 70, the “Wheat plant response rating” value [15, 20] was 80 and the “Plant response rating, Wheat” value ([15]; Preemergence, 500 g ai/ha) was 100. For the same molecule, the “Sunflower plant response rating” value [16, 21] was 60, the “Sunflower plant response rating” value [16, 22] was 100 and the “Plant response rating, Sunflower” value [16, 25] was 40. The “Sunflower plant response rating” value [16, 26] was 100.
